Consider one molecule from publication PMC7367283, “A PIP2 substitute mediates voltage sensor-pore coupling in KCNQ activation” (Communications Biology, 2020).

The target of this experiment is T1, HCN4 (Homo sapiens, UniProt Q9Y3Q4).
T1 sequence (Q9Y3Q4 1-1203): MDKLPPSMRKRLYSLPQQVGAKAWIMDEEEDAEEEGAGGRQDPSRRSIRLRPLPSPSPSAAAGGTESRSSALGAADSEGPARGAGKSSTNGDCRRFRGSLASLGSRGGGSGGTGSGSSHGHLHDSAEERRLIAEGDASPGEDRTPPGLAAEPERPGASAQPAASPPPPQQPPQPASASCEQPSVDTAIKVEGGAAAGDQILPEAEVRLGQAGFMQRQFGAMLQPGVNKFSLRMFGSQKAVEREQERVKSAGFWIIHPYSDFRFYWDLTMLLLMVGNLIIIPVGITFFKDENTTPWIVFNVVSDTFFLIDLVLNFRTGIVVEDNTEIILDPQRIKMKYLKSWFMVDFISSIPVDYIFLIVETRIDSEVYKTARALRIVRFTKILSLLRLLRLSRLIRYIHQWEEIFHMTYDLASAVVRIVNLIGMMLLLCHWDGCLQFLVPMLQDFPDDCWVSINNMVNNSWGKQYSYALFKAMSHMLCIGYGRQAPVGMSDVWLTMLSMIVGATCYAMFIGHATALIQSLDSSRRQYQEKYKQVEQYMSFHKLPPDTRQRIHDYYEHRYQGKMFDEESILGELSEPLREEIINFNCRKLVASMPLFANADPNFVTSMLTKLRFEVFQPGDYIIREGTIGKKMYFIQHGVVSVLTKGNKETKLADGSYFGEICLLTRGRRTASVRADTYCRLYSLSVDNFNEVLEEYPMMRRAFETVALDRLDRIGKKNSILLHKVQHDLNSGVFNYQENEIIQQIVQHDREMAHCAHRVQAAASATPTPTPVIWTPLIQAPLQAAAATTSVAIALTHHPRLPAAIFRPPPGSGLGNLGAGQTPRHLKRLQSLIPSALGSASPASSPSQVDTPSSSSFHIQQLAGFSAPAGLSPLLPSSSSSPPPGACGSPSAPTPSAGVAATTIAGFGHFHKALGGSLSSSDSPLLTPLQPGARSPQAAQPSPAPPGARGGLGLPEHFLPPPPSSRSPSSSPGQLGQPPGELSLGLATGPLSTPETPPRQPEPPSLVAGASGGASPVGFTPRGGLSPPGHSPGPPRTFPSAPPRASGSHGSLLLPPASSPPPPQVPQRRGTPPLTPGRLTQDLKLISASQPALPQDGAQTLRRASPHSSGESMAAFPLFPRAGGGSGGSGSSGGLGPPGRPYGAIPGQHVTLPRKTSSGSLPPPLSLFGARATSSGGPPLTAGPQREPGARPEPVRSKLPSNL
Kind of experiment: Two-electrode voltage clamp of HCN4 in Xenopus oocytes. It counts as cell-based. The note with it: 10 µM CP1. From the text: Since CP1 has a similar effect to PIP2 in mediating VSD-pore coupling in KCNQ channels, we tested if CP1 has effects on other ion channels that are also sensitive to PIP2 or are voltage activated and share general structural features of the VSD and the pore with KCNQ. […] On the other hand, NaV1.5 and KV4.2 are voltage-gated ion channels.
Fig. 6 Effects of CP1 on other ion channels expressed in Xenopus oocytes. a Currents of Kir1.1, CaV1.2, NaV1.5, hERG, and KV4.2 before and after application of 10 µM CP1, respectively. The voltages for holding, test, and returning pulses were Kir1.1, 0 mV, −100 to +60 mV, 0; CaV1.2, −100 mV, −100 to +60, −100 mV; NaV1.5, −100, −120 to +40 mV, −120 mV; hERG, −80 mV, −90 to +60 mV, −60 mV; KV4.2, −80 mV, −100 mV to +80 mV, −40 mV; HCN4, −30 mV, −30 to −140 mV, −120 mV. b Current–voltage relations of Kir1.1 channel in the absence or presence of 10 µM CP1 (n = 7). c–g G–V relations of indicated channels with and without 10 µM CP1. The ΔV1/2 of G–V relations (mV) are CaV1.2, 3.38 ± 0.71 mV (c); NaV1.5, −2.26 ± 0.95 mV (d); hERG, 6.85 ± 1.81 mV (e); KV 4.2, −2.26 ± 2.88 mV (f); HCN4, 17.13 ± 1.59 mV (g).
Complementary DNA (cDNA) encoding human KCNQ1 (UniProtKB/Swiss‐Prot under accession no. P51787), KCNQ2 (O43526), KCNQ3 (O43525), KCNE1 (P15382), Kir1.1 (P48048), hERG (Q12809), KV4.2 (Q63881), NaV1.5 (Q14524), NaV β1 (Q07699), CaV1.2 (Q13936), CaV β1a (Q02641), CaV α2/δ1 (P54289), and HCN4 (Q9Y3Q4) were subcloned into oocyte expression vectors, respectively. Site-directed mutations of the KCNQ1 channel were all produced by overlap extension polymerase chain reaction (PCR) with high-fidelity Pfu polymerase (Stratagene, CA). The presence of the desired mutation was verified by sequencing the PCR-amplified regions. All the primer sequences used in this study are available in Supplementary Table 1. The complementary RNA (cRNA) of all these channels and mutations was transcribed in vitro with the T3, T7, or SP6 polymerase mMessage mMachine kit (Invitrogen, Thermo Fisher Scientific, MO).
The whole-oocyte ionic currents were recorded with a GeneClamp 500B amplifier (Axon Instruments, CA) or iTEV90 amplifier (HEKA, Germany) and then sampled at 1 kHz and low-pass-filtered at 2 kHz. The Patchmaster software (HEKA, Germany) was used to acquire data. The Kir1.1 current was recorded with a high K^+ bath solution containing (in mM) 96 KCl, 4 NaCl, 1 CaCl2, 2 MgCl2, and 10 HEPES, pH 7.3–7.4. The HCN4 current was recorded in ND66 solution containing (in mM) 66 NaCl, 32 KCl, 1.8 CaCl2, 1 MgCl2, and 5 HEPES, pH 7.6. All the other potassium channels were recorded in ND96 solution. The currents of CaV1.2 channel were recorded in 40 mM Ba^2+ bath solution containing (in mM) 40 Ba(OH)2, 50 TEA-OH, 2 KOH, and 5 HEPES, adjusted to pH 7.4 with methanesulfonic acid. CP1 (DISODIUM 5-BROMO-2-[9-CHLORO-3-(SULFONATOOXY) NAPHTHO [1,2-B] THIEN-2-YL]-1H-INDOL-3-YL SULFATE, Sigma-Aldrich, MO) and Chromanol 293B (Sigma-Aldrich, MO) were dissolved in bath solutions. All the chemicals were purchased from Sigma-Aldrich. To measure the I–V relations of the Kir1.1 channel, the test voltage was set from −100 to +60 mV for 1 s with 20-mV increments. The test pulses were stepped from a holding potential of 0 mV and then stepped back to 0 mV. The HCN4 currents were recorded by a test pulse between −30 and −140 mV in 10-mV step from a holding potential of −30 mV. For all the other potassium channels and CaV1.2 channel, the holding potential was −80 or −100 mV, and the test pulse was applied with 10-mV increment, which was followed with a repolarization pulse at −40 mV before returning to the holding potential. The durations of test and the repolarization pulse vary for different channels to allow the activation and deactivation of the channel to reach their steady states.
(Two-electrode voltage clamp is typically applied to oocytes expressing channels or transporters.)

As for `O=S(=O)([O-])Oc1c(-c2sc3c(ccc4cccc(Cl)c43)c2OS(=O)(=O)[O-])[nH]c2ccc(Br)cc12.[Na+].[Na+]` [CP1, DISODIUM 5-BROMO-2-[9-CHLORO-3-(SULFONATOOXY) NAPHTHO [1,2-B] THIEN-2-YL]-1H-INDOL-3-YL SULFATE], the “ΔV1/2 of G–V relations” value came to 17.13 ± 1.59 mV. For the same molecule, the “G/Gmax Mean (Fig. 6g)” value (voltage -30 mV) is recorded as 0.0988. Moreover, the “G/Gmax Mean (Fig. 6g)” value (voltage -40 mV) worked out at 0.0945. Also, the “G/Gmax Mean (Fig. 6g)” value (voltage -50 mV) is recorded as 0.1008. Moreover, the “G/Gmax Mean (Fig. 6g)” value (voltage -60 mV) was 0.1162. For the same molecule, where the note is “voltage -70 mV”, the “G/Gmax Mean (Fig. 6g)” value came out at 0.1464. Where the note is “voltage -80 mV”, the “G/Gmax Mean (Fig. 6g)” value turned out to be 0.2025. Further, the “G/Gmax Mean (Fig. 6g)” value (voltage -90 mV) is 0.2959. Besides, under “voltage -100 mV”, the “G/Gmax Mean (Fig. 6g)” value was 0.4355. Further, the “G/Gmax Mean (Fig. 6g)” value (voltage -110 mV) turned out to be 0.6065. Further, the “G/Gmax Mean (Fig. 6g)” value (voltage -120 mV) was found to be 0.7756. For the same molecule, for the setting “voltage -130 mV”, the “G/Gmax Mean (Fig. 6g)” value came to 0.9097. The “G/Gmax Mean (Fig. 6g)” value (voltage -140 mV) was 1.0000.
